Values after ≈ are worked out from the molar mass of the structure shown.
Columns and labels:
Poria = assay: Antifungal activity against Poria monticola; assay type: functional
Coniophora puteana = assay: Antifungal activity against Coniophora puteana; assay type: functional
[1] = Antifungal activity against Polyporus versicolor; assay type: functional
[2] = Antifungal activity against Stereum sanguinolentum; assay type: functional
[3] = Antifungal activity against Phellinus weirii; assay type: functional
[4] = Inhibition of HIV integrase 3' processing activity; design: species or system Human immunodeficiency virus
[5] = Inhibition of HIV integrase strand transfer activity; design: species or system Human immunodeficiency virus
[6] = Inhibition of HIV reverse transcriptase RNase H; design: species or system Human immunodeficiency virus
[7] = Inhibition of HIV reverse transcriptase polymerase; design: species or system Human immunodeficiency virus
[8] = Inhibition of hepatitis B virus genotype D RNaseH
Hepatitis B virus [9] = assay: Antiviral activity against HBV assessed as inhibition of viral replication at 10 uM in cell based assay; assay type: functional
[10] = Inhibition of XMRV RNaseH; design: species or system Xenotropic MuLV-related virus
[11] = Inhibition of inositol monophosphatase (unknown origin); design: species or system Homo sapiens
Escherichia coli [12] = assay: Inhibition of Escherichia coli W677/JR76.2 2'-O-adenylyltransferase at 650 uM using aminoglycoside and [14C]ATP incubated for 15 mins by liquid scintillation counting based radiochemical assay
Escherichia coli [13] = assay: Inhibition of Escherichia coli W677/JR76.2 2'-O-adenylyltransferase at 6.5 uM using aminoglycoside and [14C]ATP incubated for 15 mins by liquid scintillation counting based radiochemical assay
[14] = test system: Human immunodeficiency virus 1; assay: Antiviral activity against HIV1 assessed as inhibition of viral replication in cell based assay; assay type: functional, organism-based
B16 [15] = assay: Cytotoxicity against mouse B16 cells; assay type: functional, cell-based
B16 [16] = assay: Inhibition of DNA synthesis in mouse B16 cells; assay type: functional, cell-based
B16 [17] = assay: Inhibition of RNA synthesis in mouse B16 cells; assay type: functional, cell-based
B16 [18] = assay: Inhibition of protein synthesis in mouse B16 cells; assay type: functional, cell-based
B16 [19] = assay: Antitumor activity against mouse B16 cells implanted in mouse assessed as mouse survival at 1.3 mg/kg/day (reference value: 16 days); assay type: functional
B16 [20] = assay: Antitumor activity against mouse B16 cells implanted in mouse assessed as mouse survival at 2.5 mg/kg/day (reference value: 16 days); assay type: functional
[21] = Inhibition of alkaline phosphatase (unknown origin); design: species or system Homo sapiens
[22] = target: T1, Dopamine beta-hydroxylase (Homo sapiens, UniProt P09172); assay: Inhibition of dopamine beta-oxygenase (unknown origin)
T1 sequence (P09172 whole entry): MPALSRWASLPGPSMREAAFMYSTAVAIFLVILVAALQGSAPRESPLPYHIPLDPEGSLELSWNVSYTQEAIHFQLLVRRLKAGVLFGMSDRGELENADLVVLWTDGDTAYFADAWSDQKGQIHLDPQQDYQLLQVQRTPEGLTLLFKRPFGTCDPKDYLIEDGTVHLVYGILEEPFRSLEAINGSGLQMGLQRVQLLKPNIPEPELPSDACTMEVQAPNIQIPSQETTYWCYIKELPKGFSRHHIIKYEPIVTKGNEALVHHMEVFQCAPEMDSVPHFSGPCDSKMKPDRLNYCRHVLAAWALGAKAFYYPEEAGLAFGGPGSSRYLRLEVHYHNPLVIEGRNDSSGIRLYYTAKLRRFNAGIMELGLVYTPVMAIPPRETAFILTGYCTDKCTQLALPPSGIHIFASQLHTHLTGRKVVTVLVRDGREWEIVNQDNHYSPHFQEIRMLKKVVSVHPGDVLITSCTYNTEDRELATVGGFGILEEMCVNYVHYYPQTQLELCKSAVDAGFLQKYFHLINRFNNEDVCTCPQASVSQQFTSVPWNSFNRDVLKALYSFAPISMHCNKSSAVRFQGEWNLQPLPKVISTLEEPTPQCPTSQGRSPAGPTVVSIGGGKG

Plasmodium falciparum [23] = assay: Antimalarial activity against chloroquine-resistant Plasmodium falciparum K1; assay type: functional, organism-based
Plasmodium falciparum [24] = assay: Antimalarial activity against Plasmodium falciparum FCR-3/Gambia; assay type: functional, organism-based
MRC5 = assay: Cytotoxicity against human MRC5 cells; assay type: functional, cell-based
Plasmodium falciparum [25] = assay: Antimalarial activity against Plasmodium falciparum infected in mouse; assay type: functional
B16 [26] = assay: Antitumor activity against mouse B16 cells implanted in mouse assessed as mouse survival at 1 mg/kg/day (reference value: 16 days); assay type: functional
[27] = Inhibition of HIV1 reverse transcriptase RNase H; design: species or system Human immunodeficiency virus 1
[28] = Inhibition of HIV2 reverse transcriptase RNase H; design: species or system Human immunodeficiency virus 2
[29] = Inhibition of Escherichia coli ribonuclease H
[30] = Inhibition of human ribonuclease H
[31] = Inhibition of phosphotidylcholine-preferring phospholipase C (unknown origin) at pH 7.3; design: species or system Homo sapiens
[32] = Inhibition of phosphotidylcholine-preferring phospholipase C (unknown origin) at pH 9.5; design: species or system Homo sapiens
Escherichia coli [33] = assay: Inhibition of Escherichia coli W677/JR76.2 2'-O-adenylyltransferase at 730 uM using aminoglycoside and [14C]ATP incubated for 15 mins by liquid scintillation counting based radiochemical assay
Escherichia coli [34] = assay: Inhibition of Escherichia coli W677/JR76.2 2'-O-adenylyltransferase at 7.3 uM using aminoglycoside and [14C]ATP incubated for 15 mins by liquid scintillation counting based radiochemical assay
[35] = Inhibition of hepatitis B virus genotype H RNaseH
Hepatitis B virus [36] = assay: Antiviral activity against HBV assessed as inhibition of viral replication in cell based assay; assay type: functional, organism-based
[37] = Toxicity in mouse assessed as induction of mortality after 48 hrs; assay type: organism-based; settings: in vivo
[38] = Toxicity in mouse assessed as induction of mortality after 72 hrs; assay type: organism-based; settings: in vivo
Escherichia coli [39] = assay: Inhibition of Escherichia coli W677/JR76.2 2'-O-adenylyltransferase at 55 uM using aminoglycoside and [14C]ATP incubated for 15 mins by liquid scintillation counting based radiochemical assay
Escherichia coli [40] = assay: Inhibition of Escherichia coli W677/JR76.2 2'-O-adenylyltransferase at 5.5 uM using aminoglycoside and [14C]ATP incubated for 15 mins by liquid scintillation counting based radiochemical assay
Escherichia coli [41] = assay: Inhibition of Escherichia coli W677/JR76.2 2'-O-adenylyltransferase at 550 uM using aminoglycoside and [14C]ATP incubated for 15 mins by liquid scintillation counting based radiochemical assay
Staphylococcus aureus = assay: Antibacterial activity against Staphylococcus aureus; assay type: functional
Aspergillus fumigatus = assay: Antifungal activity against Aspergillus fumigatus IAM2350; assay type: functional
Micrococcus luteus = assay: Antibacterial activity against Micrococcus luteus; assay type: functional
Pseudomonas aeruginosa = assay: Antibacterial activity against Pseudomonas aeruginosa; assay type: functional
Klebsiella pneumoniae = assay: Antibacterial activity against Klebsiella pneumoniae; assay type: functional
Escherichia coli [42] = assay: Antibacterial activity against Escherichia coli NIHJ; assay type: functional

In the case of CC(C)c1ccc(O)c(=O)cc1 [GAMMA-THUJAPLICIN], the MIC (Poria) is reported as 10 µM (≈ 1.64 µg/mL), the MIC (Coniophora puteana) is reported as 10 µM (≈ 1.64 µg/mL) and the MIC [1] is reported as 70 µM (≈ 11.5 µg/mL). The MIC [2] was 50 µM (≈ 8.21 µg/mL) and the MIC [3] was 50 µM (≈ 8.21 µg/mL).

O=Cc1ccc(-c2ccc(O)c(=O)c(O)c2O)cc1 showed an IC50 [4] of 0.6 µM, an IC50 [5] of 1.2 µM and an IC50 [6] of 12 µM. The IC50 [7] was 0.6 µM.

Work on NCc1ccc(-c2ccc(Cc3cc(=O)n(O)c4ncccc34)cc2)cc1 yielded an IC50 [8] of 2.5 µM, an inhibition at 10 µM (Hepatitis B virus [9]) of 93% and an IC50 [10] of 0.41 µM.

Work on N#Cc1ccc(-c2ccc(O)c(=O)c(O)c2O)cc1 yielded an IC50 [11] of 4 µM.

O=c1c(O)cccc(O)c1O gave an inhibition (Escherichia coli [12]) of 54%, an inhibition (Escherichia coli [13]) of 2% and an IC50 [4] of 40 µM. It also gave an IC50 [5] of 11 µM, an IC50 [14] of 0.3 µM and an IC50 (B16 [15]) of 0.26 µM. It also gave an IC50 (B16 [16]) of 60 µM, an IC50 (B16 [17]) of 90 µM and an IC50 (B16 [18]) of 70 µM. For the same compound, the MST (B16 [19]) was 29 days, the MST (B16 [20]) was 12 days and the IC50 [11] was 8 µM. The IC50 [21] was 60 µM, the IC50 [22] was 3 µM and the IC50 [6] was 20 µM. The IC50 [7] was 3.2 µM.

With C[C@H]1[C@H](OC(=O)CCC(=O)O)O[C@@H]2O[C@@]3(C)CC[C@H]4[C@H](C)CC[C@@H]1[C@@]24OO3 [ARTESUNATE] the IC50 (Plasmodium falciparum [23]) was 0.01 µM, the IC50 (Plasmodium falciparum [24]) was 0.0025 µM and the IC50 (MRC5) was 36 µM. It also gave an ED50 (Plasmodium falciparum [25]) of 1.7 mg/kg.

For CC(=O)Oc1cccc(OC(C)=O)c(=O)c1OC(C)=O, the IC50 [4] was greater than 1000 µM, the IC50 [6] was greater than 1000 µM and the IC50 [7] was 30 µM.

CO[C@@]12[C@H](COC(N)=O)C3=C(C(=O)C(C)=C(N)C3=O)N1C[C@@H]1N[C@@H]12 [MITOMYCIN] showed an MST (B16 [26]) of 27 days.

CC(=O)Nc1ccc(-c2cc(-c3ccc(NC(C)=O)cc3)c(O)c(=O)c(O)c2O)cc1 showed an IC50 [4] of 0.15 µM, an IC50 [5] of 1.7 µM and an IC50 [6] of 900 µM. It also gave an IC50 [7] of 52 µM.

With O=c1cccccc1O [TROPOLONE] the IC50 (Plasmodium falciparum [23]) was greater than 100 µM, the IC50 [11] was greater than 1000 µM and the IC50 [21] was greater than 1000 µM. It also gave an IC50 [22] of 2 µM, an IC50 [27] greater than 100 µM and an IC50 [28] greater than 100 µM. The IC50 [29] was greater than 100 µM and the IC50 [30] was 3 µM.

Compound O=C(O)c1cc(O)c(O)c(=O)c(O)c1 has an IC50 (Plasmodium falciparum [23]) of 0.05 µM, an IC50 (Plasmodium falciparum [24]) of 0.05 µM and an IC50 (MRC5) of 360 µM. It also gave an ED50 (Plasmodium falciparum [25]) of less than 2 mg/kg and an IC50 [11] of 10 µM.

Work on O=C1C=CCN(O)C(=O)N1O yielded a Ki [31] of 388 µM and a Ki [32] of 53 µM.

With CC(C)c1ccc(O)c(=O)c(O)c1 [BETA-THUJAPLICINOL] the inhibition (Escherichia coli [33]) was 100%, the inhibition (Escherichia coli [34]) was 31% and the IC50 [8] was 5.9 µM. The IC50 [35] was 2.3 µM, the EC50 (Hepatitis B virus [36]) was 5 µM and the IC50 [10] was 1.4 µM. The MIC (Poria) was 10 µM (≈ 1.8 µg/mL), the MIC (Coniophora puteana) was 10 µM (≈ 1.8 µg/mL) and the MIC [1] was 800 µM (≈ 144 µg/mL). For the same compound, the MIC [2] was 330 µM (≈ 59.5 µg/mL), the MIC [3] was 100 µM (≈ 18 µg/mL) and the LD50 at 48 h [37] was 175 mg/kg. For the same compound, the LD50 at 72 h [38] was 155 mg/kg, the IC50 [27] was 0.2 µM and the IC50 [28] was 0.8 µM. For the same compound, the IC50 [29] was 50 µM, the IC50 [30] was 5.7 µM and the IC50 [6] was 0.2 µM.

Work on CC(C)c1ccccc(=O)c1O [ALPHA-THUJAPLICIN] yielded an IC50 [27] of 50 µM, an IC50 [28] of 33 µM and an IC50 [29] greater than 100 µM. For the same compound, the IC50 [30] was 12 µM.

For O=c1c(O)c(O)ccc(-c2cccc([N+](=O)[O-])c2)c1O, the IC50 [4] was 0.7 µM, the IC50 [5] was 0.8 µM and the IC50 [6] was 1.3 µM. For the same compound, the IC50 [7] was 2.3 µM.

COc1cc(C(=O)O)cc(O)c(OC)c1=O gave an IC50 (Plasmodium falciparum [23]) of 3.7 µM.

In the case of O=c1c(O)ccc(O)cc1O, the IC50 (B16 [15]) is reported as 2.5 µM.

O=c1ccc(O)ccc1O showed an IC50 (B16 [15]) of 13 µM.

For O=c1c(O)ccccc1O, the inhibition (Escherichia coli [39]) was 78%, the inhibition (Escherichia coli [40]) was 8% and the Ki [31] was 16 µM. For the same compound, the Ki [32] was 23 µM, the inhibition (Escherichia coli [41]) was 100% and the MIC (Staphylococcus aureus) was 90 µM (≈ 12.4 µg/mL). It also gave an MIC (Aspergillus fumigatus) of 730 µM (≈ 101 µg/mL), an MIC (Micrococcus luteus) of 90 µM (≈ 12.4 µg/mL) and an MIC (Pseudomonas aeruginosa) of 700 µM (≈ 96.7 µg/mL). The MIC (Klebsiella pneumoniae) was 360 µM (≈ 49.7 µg/mL), the MIC (Escherichia coli [42]) was 45 µM (≈ 6.22 µg/mL) and the IC50 (B16 [15]) was 2.2 µM. It also gave an IC50 (Plasmodium falciparum [23]) of 6.4 µM, an IC50 (Plasmodium falciparum [24]) of 8.7 µM and an IC50 (MRC5) of 1.7 µM. It also gave an IC50 [11] of 75 µM, an IC50 [21] of 15 µM and an IC50 [22] of 2 µM.

— ChEMBL document CHEMBL3588832, “The biology and synthesis of α-hydroxytropolones” (Medchemcomm, 2014)
